Read-outs that look alike come from different tables or passages of the source.
What was measured:
cyclin D1, cyclin D2 = experiment: Immunoblot of cyclin D proteins in purified patient CD138+ myeloma cells; format: cell-based, human
Experimental: Primary CD138^+ myeloma cell purification. Samples from patients diagnosed by International Myeloma Working Group criteria were included in this study. Bone marrow processing, including red cell lysis using ammonium chloride and CD138^+ plasma cell purification, was performed as described elsewhere (Abraham et al., Blood, 105, 794-803 (2005)). Research BM samples were obtained following informed consent at the time of routine procurement of clinical samples.
Immunoblotting. Cytosolic extracts were prepared from HMCL or purified patient CD138^+ myeloma cells following exposure to kinetin riboside. Cells were washed with cold PBS, resuspended in cold RIPA buffer (5×10^6 cells/100 μL) containing fresh protease and phosphatase inhibitors (Santa Cruz Biotechnology, Santa Cruz, Calif.) and incubated on ice for 30 minutes with gentle mixing. The supernatant was repossessed following high speed centrifugation, and protein concentrations were determined by the Bradford assay. Immunoblot assays were performed as described elsewhere (Krajewski et al., Anal. Biochem., 236:221-228 (1996)). Briefly, equal amounts of protein were separated by SDS-PAGE and transferred to a PVDF nitrocellulose membrane using a semi-dry apparatus. […]

[1] = mouse, in vivo
Source text: Kinetin riboside toxicity in mice. In vivo toxicity studies of synthetic kinetin riboside were initiated in balc/c mice. […] The actual volume of distribution and the half-life of kinetin riboside in vivo are at present unknown and future schedules of administration may require adjustment to account for these.

HMCL = experiment: Cell cycle profiling of HMCL by flow cytometry; format: cell-based, human
Experimental: Cell cycle profiling. HMCL were incubated with drug or vehicle as indicated, washed and resuspended in 1 mL PBS. Ice cold ethanol was added dropwise to 75% with regular mixing, and suspensions were incubated at −20° C. for 1 hour. Cells were washed again with PBS and resuspended in 0.1 mL RNAse A (100 μg/mL) at room temperature for 5-10 minutes. Propidium iodide (200 μL×100 μg/mL) was added immediately prior to analysis by flow cytometry. Cellular aggregates were excluded using CellQuest Doublet Discriminator Module, and cell cycle profile was determined using ModFit LT Mac 3.1 SP2 (Verity Software House, TopSham, Me.).

[2] = tested on: CD138− hematopoietic cells; experiment: Unsorted myeloma patient bone marrow, flow cytometry: CD138- non-malignant cells; format: cell-based
Experimental: Flow cytometry. HMCL were treated as indicated and then washed in cold phosphate-buffered saline (PBS) and resuspended in buffer containing AnnexinV-FITC and propidium iodide (BD Biosciences, San Jose, Calif.) for 15 minutes at room temperature. Cells (10^5) were subsequently diluted and analyzed immediately by flow cytometry (FACScan, BD Biosciences, San Jose, Calif.) using CellQuest software. Patient bone marrow specimens were prepared and analyzed in a similar fashion using AnnexinV-FITC and anti-CD138-PE (BD Biosciences, San Jose, Calif.).
As mouse embryos that lack any D-cyclins eventually die from hematopoietic failure (Kozar et al., Cell, 118, 477-91 (2004)), the bone marrow might be predicted to be one of the most sensitive non-malignant tissue to be affected by drugs targeting cyclin D expression. Unsorted bone marrow samples from myeloma patients were treated with kinetin riboside to assess the relative cytotoxicity of this drug on malignant versus non-malignant marrow cells. Bone marrow samples were first processed to remove non-nucleated red cells and were then treated for 48 hours with kinetin riboside (5 μM).

[3] = tested on: cyclin D1, cyclin D2, cyclin D3; experiment: Immunoblot of cyclin D proteins in HMCL; format: cell-based, human
Experimental: (§1) Immunoblotting. Cytosolic extracts were prepared from HMCL or purified patient CD138^+ myeloma cells following exposure to kinetin riboside. Cells were washed with cold PBS, resuspended in cold RIPA buffer (5×10^6 cells/100 μL) containing fresh protease and phosphatase inhibitors (Santa Cruz Biotechnology, Santa Cruz, Calif.) and incubated on ice for 30 minutes with gentle mixing. The supernatant was repossessed following high speed centrifugation, and protein concentrations were determined by the Bradford assay. Immunoblot assays were performed as described elsewhere (Krajewski et al., Anal. Biochem., 236:221-228 (1996)). Briefly, equal amounts of protein were separated by SDS-PAGE and transferred to a PVDF nitrocellulose membrane using a semi-dry apparatus. Membranes were blocked using 5% skim milk in Tris buffered saline and probed with monoclonal mouse anti-cyclin D1 (DCS-6, Biosource, Camarillo, Calif.), polyclonal rabbit anti-cyclin D2 (#2924, Cell Signalling Technology), monoclonal mouse anti-cyclin D3 (DCS-22, BioSource), polyclonal rabbit anti-c-Maf (M-153, Santa Cruz), polyclonal rabbit anti-Cleaved Caspase 9 (Asp315) (Cell Signaling Technology), monoclonal mouse anti-β-actin (Cell Signaling Technology) and/or monoclonal anti-a-tubulin (B-7)(Santa Cruz Biotechnology, Santa Cruz, Calif.). Membrane proteins were visualized using HRP-conjugated species-specific secondary antibodies (Cell Signaling Technology) and enhanced chemiluminescence (Pierce, Rockford, Ill.).

caspase 9 = experiment: Immunoblot of caspase 9 cleavage in HMCL; format: cell-based, human; conditions: HMCL and CD138+ patient myeloma cells
Experimental: as §1, with “Membrane proteins were visualized using HRP-conjugated species-specific secondary antibodies (Cell Signaling Technology) and enhanced chemiluminescence (Pierce, Rockford, Ill.).” left out

H929 and U266 HMCL = experiment: Gene expression profiling (Affymetrix) of H929 and U266; format: cell-based, human; conditions: 5 μM, 4 hours
Experimental: Gene expression profiling. H929 and U266 HMCL were treated with kinetin riboside (5 μM), an unrelated cytotoxic pristimerin (0.5 μM), or DMSO vehicle for 4 hours under normal culture conditions. RNA was then isolated using Trizol and further purified by Qiagen column, according to the manufacturer's instructions and was assessed using a BioAnalyzer 2100 (Agilent Technologies, Palo Alto, Calif.). Microarray hybridization using Affymetrix Hg_U133—2+ chips (Affymetrix, Santa Clara, Calif.) was performed as described elsewhere (Abraham et al., Blood 105, 794-803 (2005)). Gene expression intensity values were log transformed, normalized by chip and by cell line to DMSO-control treated samples and analyzed using GeneSpring 7 (Agilent Technologies, Palo Alto, Calif.). Expression values were filtered by raw intensity level to exclude non-expressed probe-sets with raw expression within one log (10) of the minimum level observed. Only probe sets with sub-threshold intensities in all samples (treated and untreated) were excluded.
Analysis of CREM gene variant transcript expression. […]

OC[C@H]1O[C@@H](n2cnc3c(NCc4ccco4)ncnc32)[C@H](O)[C@@H]1O [kinetin riboside, N6-Furfuryladenosine]
patient samples with suppression of cyclin D1 or D2 (cyclin D1, cyclin D2; 10 μM, 16 hours): 4 of 5 | cyclin D1 and D2 levels in sample E (plasma cell leukemia) (cyclin D1, cyclin D2; patient E): unaffected | final concentration equated from a dose of 25 mg/kg ([1]; BALB/c (printed as "balc/c"), 25 mg/kg): about 60 μM | duration of hypoactivity after treatment ([1]; BALB/c): 15 to 30 min | maximum tolerated single dose (MTDs) ([1]; BALB/c, ip): ~100 mg/kg | maximum tolerated single dose (MTDs) ([1]; BALB/c, iv): about 25 mg/kg | tolerability of multi-dose regimen [1]: well tolerated | cell cycle profile (HMCL; H929 and U266, 10 μM, 20 hours): cell cycle arrest at G0/G1 | fall in proportion of cells entering S-phase (HMCL; all HMCL tested, 10 μM, within 20 hours): 50-70% | toxicity in CD138− bone marrow progenitor compartment [2]: only modest toxicity | effect on non-malignant CD138− marrow cells ([2]; human, 48 h, 5 μM): leaving the majority of non-malignant CD138− marrow cells intact | lag between exposure and cyclin D1 or D2 suppression [3]: 4 to 6 h | time to suppression of cyclin D1 and D2 proteins ([3]; H929, 10 μM): ≤ 6 h | time until cyclin D3 levels significantly affected ([3]; H929, 10 μM): ≥ 28 h | cyclin D3 protein levels ([3]; HMCL, 10 μM, 16 hours): did not influence cyclin D3 levels | cyclin D1 and D2 protein levels in Kms11 ([3]; Kms11): significant suppression only of cyclin D2 but not D1 | cyclin D1 protein level in U266 ([3]; U266, 10 μM, 16 hours): suppression of cyclin D1 | cyclin D1 and/or D2 protein levels ([3]; all HMCL tested, 10 μM, 16 hours): significant suppression | time to caspase-9 cleavage (caspase 9): ≤ 16 h | CREM isoform expression (H929 and U266 HMCL): preferential induction of CREM isoforms | number of genes with 3-fold or greater change in expression in both H929 and U266 (H929 and U266 HMCL): approximately 35 genes

From patent US8822440B2, “Inhibiting cyclin D polypeptides” (Mayo Foundation for Medical Education and Research, priority 2006, dated 2014)
